Data taken from patent publication US12172986B2, “Splicing modulator antibody-drug conjugates and methods of use” (EISAI R&D MANAGEMENT CO., LTD., priority 2018, dated 2024).
Values joined by “and” are separate entries in the source; they are usually repeats but may differ in a detail not shown here. Equal values may be shown once.

Assays:
[1] = test system: Caco-2 cells; experiment: Caco-2 permeability of ADC payload; format: in vitro ADME; details: for Permeability Caco-2 A-B (10e-6 cm/s): Table 26, corresponding payload; for Eflux ratio: B-A/A-B; for Perm. Mean Caco-2 A-B Perm (10e-6 cm/s) / Perm. Mean Caco-2 B-A Perm (10e-6 cm/s): corresponding free payload of the ADC
Procedure: (§1) Integrity of cell monolayer was confirmed by TEER (transepithelial electrical resistance) and Lucifer yellow. Payloads were spiked in duplicate at 10 μM, separately, on both sides of the cell monolayer. Permeability rates from the apical to basolateral (A-B) direction and the basolateral to apical (B-A) direction were determined by sampling aliquots from both chambers immediately after treatment (t=0) and following incubation for 2 hours. Samples were protein precipitated with organic solvent containing internal standard and analyzed by LC-MS/MS (SCIEX; API 5500). The area ratio responses of payload/internal standard over time in both directions were used to generate permeability (cm/see) values. Efflux ratio was calculated by dividing B-A/A-B. Control compounds for low and high permeability and efflux behaved as expected.

[2] = Chemical stability of ADC payload, pH 5.5 buffer; details: for pH 5.5 Stability (t1/2, 37C): Table 26, corresponding payload, pH 5.5, 37C
[3] = test system: Ad2.1 pre-mRNA splicing; experiment: In vitro splicing (IVS) RT-qPCR, Ad2.1 pre-mRNA, HeLa nuclear extract; format: biochemical; details: payload of the ADC; read-out: qPCR-IVS-AT S Gmean IC50 (nm) Ad2.1 HELA.2
Procedure: HeLa nuclear extract preparation: HeLa S3 cell pellets were resuspended in hypotonic buffer (10 mM HEPES pH 7.9, 1.5 mM MgCl2, 10 mM KCl, 0.2 mM PMSF, 0.5 mM DTT) and the suspension was brought up to a total of 5 packed cell volume (PCV). After centrifugation, the supernatant was discarded, and the cells were brought up to 3 PCV with hypotonic buffer and incubated on ice for 10 min. Cells were lysed using a dounce homogenizer and then centrifuged. […] The nuclei were gently mixed for 30 min before centrifuging. The supernatant (nuclear extract) was then dialyzed into storage buffer (20 mM HEPES pH 7.9, 100 mM KCl, 0.2 mM EDTA, 20% glycerol, 0.2 mM PMSF, 0.5 mM DTT). Protein concentration was determined using NanoDrop 8000 UV-Vis spectrophotometer (ThermoFisher Scientific).
IVS: All Ad2-derived sequences (Pellizzoni et al. (1998) Cell 95(5):615-24) were cloned into pcDNA3.1(+) vector (Promega) using 5′ EcoRI and 3′ Xbal restriction sites. The plasmids were linearized using Xbal and used as DNA templates in in vitro transcription reactions. The FtzΔi intron-less plasmid (Luo and Reed (1999) 96(26):14937-42) was linearized using EcoRI. All RNAs were in vitro transcribed and then purified using MEGAScript T7 (Invitrogen) and MegaClear (Invitrogen) kits, respectively. For splicing reactions using Ad2 variant pre-mRNAs, 1 μL reactions were prepared using 8 μg nuclear extracts prepared from HeLa S3, 2 ng pre-mRNA, 0.2 ng FTZΔi, and varying concentrations of compounds or DMSO. After a 15 min pre-incubation at 30° C., 1 μL splicing activation buffer (0.5 mM ATP, 20 mM creatine phosphate, 1.6 mM MgCl2) was added, and the reactions were incubated for 90 min at 30° C. The reactions were then quenched with 13 μL DMSO, and 25 nL was used for RT-qPCR. RT-qPCR reactions were prepared using TaqMan RNA-to-CT 1-step kit (Life Technologies), RNA from splicing reactions, Ad2 (forward: [sequence]; reverse: [sequence]; probe: [sequence]) and Ftz (forward: [sequence]; reverse: [sequence]; probe: [sequence]) mRNA primer-probe sets. Prism 7 (Graphpad) was used for non-linear regression curve fitting of the formed spliced product and normalized to the control (DMSO) sample.

[4] = test system: Ad2.2 pre-mRNA splicing; experiment: In vitro splicing (IVS) RT-qPCR, Ad2.2 pre-mRNA, HeLa nuclear extract; format: biochemical; details: payload of the ADC; read-out: qPCR-IVS-AT S GMean IC50 (nM) Ad2.2 HELA.2
Procedure: To evaluate payload activity in a cell-free system, an in vitro splicing assay was performed. The payloads were incubated with nuclear extracts and pre-mRNA substrate minigenes.
HeLa nuclear extract preparation: HeLa S3 cell pellets were resuspended in hypotonic buffer (10 mM HEPES pH 7.9, 1.5 mM MgCl2, 10 mM KCl, 0.2 mM PMSF, 0.5 mM DTT) and the suspension was brought up to a total of 5 packed cell volume (PCV). After centrifugation, the supernatant was discarded, and the cells were brought up to 3 PCV with hypotonic buffer and incubated on ice for 10 min. Cells were lysed using a dounce homogenizer and then centrifuged. […]. The nuclei were gently mixed for 30 min before centrifuging. The supernatant (nuclear extract) was then dialyzed into storage buffer (20 mM HEPES pH 7.9, 100 mM KCl, 0.2 mM EDTA, 20% glycerol, 0.2 mM PMSF, 0.5 mM DTT). Protein concentration was determined using NanoDrop 8000 UV-Vis spectrophotometer (ThermoFisher Scientific).
IVS: All Ad2-derived sequences (Pellizzoni et al. (1998) Cell 95(5):615-24) were cloned into pcDNA3.1(+) vector (Promega) using 5′ EcoRI and 3′ Xbal restriction sites. The plasmids were linearized using Xbal and used as DNA templates in in vitro transcription reactions. The FtzΔi intron-less plasmid (Luo and Reed (1999) 96(26):14937-42) was linearized using EcoRI. All RNAs were in vitro transcribed and then purified using MEGAScript T7 (Invitrogen) and MegaClear (Invitrogen) kits, respectively. For splicing reactions using Ad2 variant pre-mRNAs, 1 μL reactions were prepared using 8 μg nuclear extracts prepared from HeLa S3, 2 ng pre-mRNA, 0.2 ng FTZΔi, and varying concentrations of compounds or DMSO. After a 15 min pre-incubation at 30° C., 1 μL splicing activation buffer (0.5 mM ATP, 20 mM creatine phosphate, 1.6 mM MgCl2) was added, and the reactions were incubated for 90 min at 30° C. The reactions were then quenched with 13 μL DMSO, and 25 nL was used for RT-qPCR. RT-qPCR reactions were prepared using TaqMan RNA-to-CT 1-step kit (Life Technologies), RNA from splicing reactions, Ad2 (forward: […]; reverse: […]; probe: […]) and Ftz (forward: […]; reverse: […]; probe: […]) mRNA primer-probe sets. Prism 7 (Graphpad) was used for non-linear regression curve fitting of the formed spliced product and normalized to the control (DMSO) sample. […] In the presence of payload, a decrease in the amount of spliced product was observed.

[5] = test system: HCC1954 cells; experiment: Cell viability CellTiter-Glo, HCC1954; format: cell-based; details: unconjugated payload of the ADC
Procedure: (§2) HCC1954 (American Type Culture Collection (ATCC)) breast ductal carcinoma cells were plated at 2000 cells/well in flat bottom 96-well tissue culture plates (Corning) in a total volume of 90 μL tissue culture medium supplemented with 10% fetal bovine serum (ThermoFisher Scientific). Cells were treated with a 3-fold serial dilution of compound from 200 nM to 0.03 nM. Each concentration was tested in triplicate. At the time of treatment, a plate of untreated cells was evaluated using CellTiter-Glo®2.0 Luminescent Cell Viability Assay according to the manufacturer's recommendations (Promega; #G9241). CellTiter-Glo® 2.0 reagent was added to the medium, incubated, and assayed on an EnVision Multilabel Reader (PerkinElmer). Values represent time zero (TO). […] Percentage growth inhibition was calculated as: [(T144-T0)/(C-TO)]×100 for concentrations for which T144>/=TO or [(T144-T0)/T0]×100 for concentrations for which T144<TO. The dose response curve plots were generated using Prism 7 (Graphpad) and fit using nonlinear regression analysis and the log(inhibitor) versus response-variable slope (four parameters).
(§3) HCC1954 (ATCC), 2000 cells/well), N87 (ATCC, 4000 cells/well), SKBR3 (ATCC, 3000 cells/well), and MCF7 (ATCC, 1500 cells/well) cell lines were used.

[6] = test system: N87 cells; experiment: Cell viability CellTiter-Glo, N87; format: cell-based, human; details: unconjugated payload of the ADC
Procedure: as §2, §3

[7] = test system: THP1.1; experiment: Payload cell potency and lethality CTGlo 72 h, THP1.1; format: cell-based; details: payload
[8] = test system: MOLP8 cells; experiment: Cell viability, CD138-expressing MOLP8; format: cell-based; details: for LD50 (nM) (payload) / Rmin (%) (payload): unconjugated payload of the ADC
[9] = test system: PC3 cells; experiment: Cell viability, EPHA2-expressing PC3; format: cell-based; details: corresponding payload alone
Procedure: as §2

[10] = Caco-2 permeability of ADC payload; format: in vitro ADME; details: human, Caco-2; payload, B-A/A-B; read-out: Eflux ratio
Procedure: as §1

[11] = test system: MCF7 cells; experiment: Cell viability CellTiter-Glo, HER2-negative MCF7; details: unconjugated payload of the ADC
Procedure: HCC1954 (American Type Culture Collection (ATCC)) breast ductal carcinoma cells were plated at 2000 cells/well in flat bottom 96-well tissue culture plates (Corning) in a total volume of 90 μL tissue culture medium supplemented with 10% fetal bovine serum (ThermoFisher Scientific). Cells were treated with a 3-fold serial dilution of compound from 200 nM to 0.03 nM. Each concentration was tested in triplicate. At the time of treatment, a plate of untreated cells was evaluated using CellTiter-Glo®2.0 Luminescent Cell Viability Assay according to the manufacturer's recommendations (Promega; #G9241). CellTiter-Glo® 2.0 reagent was added to the medium, incubated, and assayed on an EnVision Multilabel Reader (PerkinElmer). Values represent time zero (TO). […] Using the luminescence value at time zero (TO), DMSO control growth (C), and test growth in the presence of compound (T144), the percentage growth was calculated at each of the compound concentrations levels. Percentage growth inhibition was calculated as: [(T144-T0)/(C-TO)]×100 for concentrations for which T144>/=TO or [(T144-T0)/T0]×100 for concentrations for which T144<TO. The dose response curve plots were generated using Prism 7 (Graphpad) and fit using nonlinear regression analysis and the log(inhibitor) versus response-variable slope (four parameters).
as §3

[12] = biological target: T1, SF3b complex (Homo sapiens, UniProt O75533+Q7RTV0); experiment: SF3B1 binding / scintillation proximity assay (SPA); details: payload of the ADC; read-out: SPA-AT S GMean IC50 (nM) SF381 (WT) HELA.2
T1 construct: The beads were suspended and added to the prepared nuclear extracts
Procedure: A scintillation proximity assay was performed to measure the binding affinity of compounds (“payloads”) to the SF3b complex. Batch immobilization of anti-SF3B1 antibody (MBL) to anti-mouse PVT SPA scintillation beads (PerkinElmer) was prepared as follows: for every 2.5 mg of nuclear extracts, 5 μg of anti-SF3B1 antibody and 1.5 mg of beads were mixed in 150 μL PBS. The antibody-bead mixture was incubated for 30 min at RT and centrifuged at 18,000g for 5 min. 150 μL PBS was used to resuspend every 1.5 mg antibody-bead mixture. The beads were suspended and added to the prepared nuclear extracts. The slurry was incubated for 2 hours at 4° C. with gentle mixing. The beads were then collected by centrifuging at 18,000g for 5 min, and washed twice with PBS+0.1% Triton X-100. After a final centrifugation step, every 1.5 mg of beads was suspended with 150 μL of PBS. […] The mixture was incubated for 30 min, and luminescence signals were read using a MicroBeta2 Plate Counter (PerkinElmer).

[13] = in vivo; cited from earlier work

Row | Compound | Permeability Caco-2 A-B (10e-6 cm/s) [1] | pH 5.5 Stability (t1/2, 37C) [2] | IC50 [3] | IC50 [4] [nM] | Payload LD50 [5] [nM] | Payload Rmin (%) [5] | Payload LD50 [6] [nM] | CTGlo-AT S GMean LD50 (nM) 72 h THP1.1 [7] [nM] | LD50 (nM) (payload) [8] | Rmin (%) (payload) [8] | Payload LD50 [9] [nM] | efflux ratio at 2 h, 10 μM [10] | Payload LD50 [11] [nM] | Payload Rmin (%) [11] [%] | further results
1 | C/C(=C\c1cccc(S(=O)(=O)N2CCCC2)c1)[C@H]1OC(=O)C[C@H](O)CC[C@H](C)[C@@H](OC(=O)N2CCN(C)CC2)/C=C/[C@@H]1C [D34] | 26 10e-6 cm/s | 7 | – | – | – | – | – | – | – | – | – | – | – | – | –
2 | CC[C@H](O)[C@@H](C)[C@H]1O[C@@H]1C[C@@](C)(O)/C=C/C=C(\C)[C@H]1OC(=O)C[C@H](O)CC[C@@](C)(OC)[C@@H](OC(=O)N2CCN(C)CC2)/C=C/[C@@H]1C [D2, (2S,3S,6S,7R,10R,E)-10-hydroxy-2-((R,2E,4E)-6-hydroxy-7-((2R,3R)-3-((2R,3S)-3-hydroxypentan-2-yl)oxiran-2-yl)-6-methylhepta-2,4-dien-2-yl)-7-methoxy-3,7-dimethyl-12-oxooxacyclododec-4-en-6-yl 4-methylpiperazine-1-carboxylate] | 0.6 10e-6 cm/s | 4 | 19.1 nM and 19.3 nM | 15.3 | 2.758 | −78.732% | >200 | 11.708 | 5.035 | −100.198 | >400 | 22.8 | 30.318 | −66.915 | Eflux ratio ([1]; payload): 22.756
3 | C/C(=C\c1cc(F)cc(N2CCOCC2)c1)[C@H]1OC(=O)C[C@H](O)CC[C@H](C)[C@@H](OC(=O)N2CCN(C)CC2)/C=C/[C@@H]1C [D17] | 20 10e-6 cm/s | 7 | 17.9 nM | 9.44 | – | – | – | 24.908 | – | – | – | 0.896 | – | – | –
4 | CC(=O)N1CCC(n2nnc3c(F)cc(/C=C(\C)[C@H]4OC(=O)C[C@H](O)CC[C@H](C)[C@@H](OC(=O)N5CCN(C)CC5)/C=C/[C@@H]4C)cc32)CC1 [D15] | 3.4 10e-6 cm/s | 7 | 4.63 nM | 4.93 | – | – | – | 11.038 | 9.178 | −100.198 | >400 | – | 130.398 | −68.503 | –
5 | C/C(=C\c1cc(F)cc(N2CCN(C(=O)Cn3cccn3)CC2)c1)[C@H]1OC(=O)C[C@H](O)CC[C@H](C)[C@@H](OC(=O)N2CCNCC2)/C=C/[C@@H]1C [D16] | 0.72 10e-6 cm/s | 7 | 16 nM | 15.1 | 2.037 | −84.412% | >200 | 21.46 | – | – | – | 32.4 | – | – | GI50 ([5]; Homo sapiens): 0.358 nM; GI50 ([6]; Homo sapiens): 0.41 nM
6 | COc1cc2cc(c1Cl)N(C)C(=O)C[C@H](OC(=O)[C@H](C)N(C)C(=O)CCS)[C@]1(C)O[C@H]1[C@H](C)[C@@H]1C[C@@](O)(NC(=O)O1)[C@H](OC)/C=C/C=C(\C)C2 [DM1, reference compound] | – | – | > 25000 nM | > 25000 | – | – | – | 3.287 | – | – | – | – | – | – | IC50 [12]: > 1200 nM; CTGlo-AT S Mean MinResponse % 72 h THP1.1 [7]: −93.785%; Permeability Mean Caco-2 A-B Perm (10e-6 cm/s) ([1]; payload, 10 μM, 2 hours, apical to basolateral): 0.38 10e-6 cm/s; Permeability Mean Caco-2 B-A Perm (10e-Gcm/s) ([1]; payload, 10 μM, 2 hours, basolateral to apical): 28.6 10e-Gcm/s; Stability Mean Stability t1/2 pH5.5 (d) ([2]; payload, 20 μM, pH 5.5 buffer, 37° C.): 1.3 d
7 | ipilimumab | – | – | – | – | – | – | – | – | – | – | – | – | – | – | plasma half-life [13]: 12 to 14 days
8 | CC[C@H](O)[C@@H](C)C1OC1C[C@@](C)(O)/C=C/C=C(\C)[C@H]1OC(=O)C[C@H](O)CC[C@@](C)(OC(C)=O)[C@@H](OC(=O)N2CCNCC2)/C=C/[C@@H]1C (stereo in doubt) [D4, (2S,3S,6S,7R,10R,E)-7-acetoxy-10-hydroxy-2-((R,2E,4E)-6-hydroxy-7-((2S,3S)-3-((2R,3S)-3-hydroxypentan-2-yl)oxiran-2-yl)-6-methylhepta-2,4-dien-2-yl)-3,7-dimethyl-12-oxooxacyclododec-4-en-6-yl piperazine-1-carboxylate] | 0.1 10e-6 cm/s | 4.5 | 20.9 nM | 17.3 | 6.374 | −81.34% | 38.774 | 33.329 | 12.99 | −101.935 | >400 | – | 96.46 | −60.923 | Perm. Mean Caco-2 A-B Perm (10e-6 cm/s) [1]: 0.1 10e-6 cm/s; Perm. Mean Caco-2 B-A Perm (10e-6 cm/s) [1]: 1.79 10e-6 cm/s; Eflux ratio ([1]; payload): 17.9
9 | CC[C@H](O)[C@@H](C)[C@H]1O[C@@H]1C[C@H](C)/C=C/C=C(\C)[C@H]1OC(=O)C[C@H](O)CC[C@@](C)(OC)[C@@H](OC(=O)N2CCN(C)CC2)/C=C/[C@@H]1C [D19, (2S,3S,6S,7R,10R,E)-10-hydroxy-2-((S,2E,4E)-7-((2R,3R)-3-((2R,3S)-3-hydroxypentan-2-yl)oxiran-2-yl)-6-methylhepta-2,4-dien-2-yl)-7-methoxy-3,7-dimethyl-12-oxooxacyclododec-4-en-6-yl 4-methylpiperazine-1-carboxylate] | 16 10e-6 cm/s | 0.8 | – | – | – | – | – | – | 4.58 | −62.2 | – | – | – | – | –
10 | CC[C@H](O)[C@@H](C)C1OC1C[C@@](C)(O)/C=C/C=C(\C)[C@H]1OC(=O)C[C@H](O)CC[C@@](C)(OC)[C@@H](OC(=O)N2CCNCC2)/C=C/[C@@H]1C (stereo in doubt) [D1, (2S,3S,6S,7R,10R,E)-10-hydroxy-2-((R,2E,4E)-6-hydroxy-7-((2S,3S)-3-((2R,3S)-3-hydroxypentan-2-yl)oxiran-2-yl)-6-methylhepta-2,4-dien-2-yl)-7-methoxy-3,7-dimethyl-12-oxooxacyclododec-4-en-6-yl piperazine-1-carboxylate] | – | – | 17.6 nM | 15.9 | 5.485 | −78.579% and −75.579% | >200 | 41.408 | 25.712 | −100.248 | >400 | 14.6 | 135.42 | −63.414 | GI50 ([8]; Homo sapiens, MOLP-8, unconjugated payload of the ADC, read-out: GI50 (nM) (payload)): 6.88 nM; Perm. Mean Caco-2 A-B Perm (10e-6 cm/s) [1]: 0.14 10e-6 cm/s; Perm. Mean Caco-2 B-A Perm (10e-6 cm/s) [1]: 2.05 10e-6 cm/s; Eflux ratio ([1]; payload): 14.643
11 | tremelimumab | – | – | – | – | – | – | – | – | – | – | – | – | – | – | plasma half-life [13]: approximately 22 days
